Test results as given in PubChem BioAssay (NCI).
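GI50 is the concentration that inhibits growth by half. At the TGI there is no net growth.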

How the values were obtained:
Assay in all cases: NCI tumour cell line growth inhibition, 384-well format
[1] = system: 786-0 renal
[2] = system: A498 renal
[3] = system: A549 NSCLC
[4] = system: ACHN renal
[5] = system: BT-549 breast
[6] = system: CAKI-1 renal
[7] = system: CCRF-CEM leukemia
[8] = system: COLO 205 colon
[9] = system: DU-145 prostate
[10] = system: EKVX NSCLC
[11] = system: HCC-2998 colon
[12] = system: HCT-116 colon
[13] = system: HCT-15 colon
[14] = system: HL-60(TB) leukemia
[15] = system: HOP-62 NSCLC
[16] = system: HOP-92 NSCLC
[17] = system: HS 578T breast
[18] = system: HT29 colon
[19] = system: IGROV1 ovarian
[20] = system: K-562 leukemia
[21] = system: KM12 colon
[22] = system: LOX IMVI melanoma
[23] = system: M14 melanoma
[24] = system: MALME-3M melanoma
[25] = system: MCF7 breast
[26] = system: MDA-MB-231 breast
[27] = system: MDA-MB-435 melanoma
[28] = system: MDA-MB-468 breast
[29] = system: MOLT-4 leukemia
[30] = system: NCI-H226 lung
[31] = system: NCI-H23 lung
[32] = system: NCI-H322M lung
[33] = system: NCI-H460 NSCLC
[34] = system: NCI-H522 lung
[35] = system: NCI/ADR-RES ovarian
[36] = system: OVCAR-3 ovarian
[37] = system: OVCAR-4 ovarian
[38] = system: OVCAR-5 ovarian
[39] = system: OVCAR-8 ovarian
[40] = system: PC-3 prostate
[41] = system: RPMI-8226 leukemia
[42] = system: RXF 393 renal
[43] = system: SF-268 CNS
[44] = system: SF-295 CNS
[45] = system: SF-539 CNS
[46] = system: SK-MEL-28 melanoma
[47] = system: SK-MEL-5 melanoma
[48] = system: SK-OV-3 ovarian
[49] = system: SN12C renal
[50] = system: SNB-19 CNS
[51] = system: SNB-75 CNS
[52] = system: SR leukemia
[53] = system: SW-620 colon
[54] = system: T-47D breast
[55] = system: TK-10 renal
[56] = system: U251 glioblastoma
[57] = system: UACC-257 melanoma
[58] = system: UO-31 renal

## CCN1C(=O)CNc2ncc(-c3ccc(-c4ncn[nH]4)nc3C)nc21
[1]
  GI50: 46.2 nM
  TGI: 375 nM
[2]
  GI50: 14.1 nM
  TGI: 82 nM
[3]
  GI50: 27.5 nM
  TGI: 181 nM
[4]
  GI50: 20 nM
  TGI: 94 nM
[5]
  GI50: 15.8 nM
  TGI: 53.1 nM
[6]
  GI50: 18.4 nM
  TGI: 53.3 nM
[7]
  GI50: 23.4 nM
  TGI: 135 nM
[8]
  GI50: 21.8 nM
  TGI: 145 nM
[9]
  GI50: 34.1 nM
  TGI: 240 nM
[10]
  GI50: 19.1 nM
  TGI: 115 nM
[11]
  GI50: 52.6 nM
  TGI: 285 nM
[12]
  GI50: 45 nM
  TGI: 193 nM
[13]
  GI50: 32 nM
  TGI: 1040 nM
[14]
  GI50: 25.9 nM
  TGI: 59.8 nM
[15]
  GI50: 16.8 nM
  TGI: 49 nM
[16]
  GI50: 19.6 nM
  TGI: 145 nM
[17]
  GI50: 11.2 nM
  TGI: 34.7 nM
[18]
  GI50: 42.7 nM
  TGI: 1740 nM
[19]
  GI50: 12.4 nM
  TGI: 46.7 nM
[20]
  GI50: 46.5 nM
  TGI: 1700 nM
[21]
  GI50: 28 nM
  TGI: 1420 nM
[22]
  GI50: 41.2 nM
  TGI: 150 nM
[23]
  GI50: 18.7 nM
  TGI: 420 nM
[24]
  GI50: < 10 nM
  TGI: 41 nM
[25]
  GI50: < 10 nM
  TGI: 101 nM
[26]
  GI50: 23.1 nM
  TGI: 12700 nM
[27]
  GI50: 36.3 nM
  TGI: 284 nM
[28]
  GI50: 16 nM
  TGI: 75.1 nM
[29]
  GI50: 11.8 nM
  TGI: 27.4 nM
[30]
  GI50: 18.3 nM
  TGI: 69.6 nM
[31]
  GI50: 18.4 nM
  TGI: 52.4 nM
[32]
  GI50: 27.7 nM
  TGI: 507 nM
[33]
  GI50: 10.7 nM
  TGI: 146 nM
[34]
  GI50: 14 nM
  TGI: 134 nM
[35]
  GI50: 37.2 nM
  TGI: 220 nM
[36]
  GI50: 29.8 nM
  TGI: 227 nM
[37]
  GI50: 15.4 nM
  TGI: 178 nM
[38]
  GI50: 28.5 nM
  TGI: 2430 nM
[39]
  GI50: 32.7 nM
  TGI: 1070 nM
[40]
  GI50: 10.5 nM
  TGI: 48.2 nM
[41]
  GI50: < 10 nM
  TGI: 12.3 nM
[42]
  GI50: 22.1 nM
  TGI: 63.9 nM
[43]
  GI50: 18.6 nM
  TGI: 52.6 nM
[44]
  GI50: < 10 nM
  TGI: 32.8 nM
[45]
  GI50: 36 nM
  TGI: 271 nM
[46]
  GI50: 23.5 nM
  TGI: 174 nM
[47]
  GI50: < 10 nM
  TGI: 39.9 nM
[48]
  GI50: 21.7 nM
  TGI: 184 nM
[49]
  GI50: 28.2 nM
  TGI: 333 nM
[50]
  GI50: 64.6 nM
  TGI: 706 nM
[51]
  GI50: < 10 nM
  TGI: 37.9 nM
[52]
  GI50: 11.1 nM
  TGI: 24.9 nM
[53]
  GI50: 32 nM
  TGI: 1130 nM
[54]
  GI50: < 10 nM
  TGI: 34.3 nM
[55]
  GI50: 23.4 nM
  TGI: 143 nM
[56]
  GI50: 38.5 nM
  TGI: 217 nM
[57]
  GI50: 40.2 nM
  TGI: 270 nM
[58]
  GI50: 17.9 nM
  TGI: 91 nM
